US5026848A, “Novel generation of heteroaryloxyalkyl heterocycles with antipicornaviruses activities” (Synphar Laboratories Incorporated, priority 1988, dated 1991)
Values after ≈ are worked out from the molar mass of the structure shown. Read-outs that look alike come from different tables or passages of the source.

Key:
Rhinovirus 30 = assay: Anti-rhinovirus activity, cytopathic effect inhibition / neutral red dye uptake, type 30; type: cell-based; settings: Enterovirus, WI-38; Table II; read-out: MIC 50 Rhinovirus Type 30
Rhinovirus 23 = assay: Anti-rhinovirus activity, cytopathic effect inhibition / neutral red dye uptake, type 23; type: cell-based; settings: Enterovirus, WI-38; Table II; read-out: MIC 50 Rhinovirus Type 23
Rhinovirus 1B = assay: Anti-rhinovirus activity, cytopathic effect inhibition / neutral red dye uptake, type 1B; type: cell-based; settings: Enterovirus, WI-38; Table II; one of seven commonest serotypes; read-out: MIC 50 Rhinovirus Type 1B
Rhinovirus 15 = assay: Anti-rhinovirus activity, cytopathic effect inhibition / neutral red dye uptake, type 15; type: cell-based; settings: Enterovirus, WI-38; Table II; one of seven commonest serotypes; read-out: MIC 50 Rhinovirus Type 15
[1] = test system: 20 serotypes of rhinovirus; assay: Anti-rhinovirus activity against a panel of 20 serotypes; settings: Table II; numerator; denominator 20, but 10 for compound 8 and 6 for compound 30
Rhinovirus 31 = assay: Anti-rhinovirus activity, cytopathic effect inhibition / neutral red dye uptake, type 31; type: cell-based; settings: Enterovirus, WI-38; Table II; one of seven commonest serotypes; read-out: MIC 50 Rhinovirus Type 31
Rhinovirus 2 = assay: Anti-rhinovirus activity, cytopathic effect inhibition / neutral red dye uptake, type 2; type: cell-based; settings: Enterovirus, WI-38; Table II; one of seven commonest serotypes; read-out: MIC 50 Rhinovirus Type 2
Rhinovirus 63 = assay: Anti-rhinovirus activity, cytopathic effect inhibition / neutral red dye uptake, type 63; type: cell-based; settings: Enterovirus, WI-38; Table II; read-out: MIC 50 Rhinovirus Type 63
Enterovirus serotypes = type: cell-based; settings: for All Enterovirus Serotypes (number of serotypes active / tested): Table III, numerator, denominator 7, but 5 for compound 8
Rhinovirus 4 = assay: Anti-rhinovirus activity, cytopathic effect inhibition / neutral red dye uptake, type 4; type: cell-based; settings: Enterovirus, WI-38; Table II; one of seven commonest serotypes; read-out: MIC 50 Rhinovirus Type 4
Rhinovirus 49 = assay: Anti-rhinovirus activity, cytopathic effect inhibition / neutral red dye uptake, type 49; type: cell-based; settings: Enterovirus, WI-38; Table II; read-out: MIC 50 Rhinovirus Type 49
Rhinovirus 56 = assay: Anti-rhinovirus activity, cytopathic effect inhibition / neutral red dye uptake, type 56; type: cell-based; settings: Enterovirus, WI-38; Table II; read-out: MIC 50 Rhinovirus Type 56
Polio 1 = assay: microbe, parasite or virus in culture; type: cell-based; settings: Enterovirus, read-out: MIC 50 Polio 1
WI38 cells = assay: Toxicity to WI38 cells (change in morphology in / growth inhibition of 25% of the cells); type: cell-based
Coxsacki-B1 = assay: Activity against other picornaviruses, Coxsacki-B1; type: cell-based; settings: Enterovirus, read-out: MIC 50 Cox. B1
Rhinovirus 88 = assay: Anti-rhinovirus activity, cytopathic effect inhibition / neutral red dye uptake, type 88; type: cell-based; settings: Enterovirus, WI-38; Table II; read-out: MIC 50 Rhinovirus Type 88
Coxsacki-A21 = assay: Activity against other picornaviruses, Coxsacki-A21; type: cell-based; settings: Enterovirus, read-out: MIC 50 Cox. A21
Rhinovirus 86 = assay: Anti-rhinovirus activity, cytopathic effect inhibition / neutral red dye uptake, type 86; type: cell-based; settings: Enterovirus, WI-38; Table II; read-out: MIC 50 Rhinovirus Type 86
Rhinovirus 1A = assay: Anti-rhinovirus activity, cytopathic effect inhibition / neutral red dye uptake, type 1A; type: cell-based; settings: Enterovirus, WI-38
Rhinovirus 36 = assay: Anti-rhinovirus activity, cytopathic effect inhibition / neutral red dye uptake, type 36; type: cell-based; settings: Enterovirus, WI-38; Table II; read-out: MIC 50 Rhinovirus Type 36
Echo-11 = assay: Activity against other picornaviruses, Echo-11; type: cell-based; settings: Enterovirus, read-out: MIC 50 Echo 11
Rhinovirus 29 = assay: Anti-rhinovirus activity, cytopathic effect inhibition / neutral red dye uptake, type 29; type: cell-based; settings: Enterovirus, WI-38; Table II; one of seven commonest serotypes; read-out: MIC 50 Rhinovirus Type 29
Coxsacki-B4 = assay: Activity against other picornaviruses, Coxsacki-B4; type: cell-based; settings: Enterovirus, read-out: MIC 50 Cox. B4
Rhinovirus 32 = assay: Anti-rhinovirus activity, cytopathic effect inhibition / neutral red dye uptake, type 32; type: cell-based; settings: Enterovirus, WI-38; Table II; read-out: MIC 50 Rhinovirus Type 32
Rhinovirus 44 = assay: Anti-rhinovirus activity, cytopathic effect inhibition / neutral red dye uptake, type 44; type: cell-based; settings: Enterovirus, WI-38; Table II; read-out: MIC 50 Rhinovirus Type 44
Echo-7 = assay: Activity against other picornaviruses, Echo-7; type: cell-based; settings: Enterovirus, read-out: MIC 50 Echo 7
Rhinovirus 39 = assay: Anti-rhinovirus activity, cytopathic effect inhibition / neutral red dye uptake, type 39; type: cell-based; settings: Enterovirus, WI-38; Table I; WI38 cells, 33° C., 3-4 days; read-out: MIC50 Rhinovirus 39
Rhinovirus 53 = assay: Anti-rhinovirus activity, cytopathic effect inhibition / neutral red dye uptake, type 53; type: cell-based; settings: Enterovirus, WI-38; Table II; read-out: MIC 50 Rhinovirus Type 53
HRV-1A and HRV-39 = assay: Anti-rhinovirus activity against HRV-1A and HRV-39; settings: in words
Coxsacki-A9 = assay: Activity against other picornaviruses, Coxsacki-A9; type: cell-based; settings: Enterovirus, read-out: MIC 50 Cox. A9
Rhinovirus 17 = assay: Anti-rhinovirus activity, cytopathic effect inhibition / neutral red dye uptake, type 17; type: cell-based; settings: Enterovirus, WI-38; Table II; read-out: MIC 50 Rhinovirus Type 17
[2] = Table I, concentration with change in morphology in 25% of WI38 cells
[3] = Table I, WI38 cells, 33° C., 3-4 days, NA = Not active, read-out: MIC50 Rhinovirus 1A

Structure (SMILES) | IC50 (Rhinovirus 30) [µg/mL] | IC50 (Rhinovirus 23) [µg/mL] | IC50 (Rhinovirus 1B) [µg/mL] | IC50 (Rhinovirus 15) [µg/mL] | All Rhinovirus Serotypes (number of serotypes active / tested) [1] | EC50 (Rhinovirus 31) [µg/mL] | IC50 (Rhinovirus 2) [µg/mL] | EC50 (Rhinovirus 63) [µg/mL] | All Enterovirus Serotypes (number of serotypes active / tested) (Enterovirus serotypes) | IC50 (Rhinovirus 4) [µg/mL] | EC50 (Rhinovirus 49) [µg/mL] | EC50 (Rhinovirus 56) [µg/mL] | EC50 (Polio 1) [µg/mL] | Toxicity (WI38 cells; [2]) [µg/mL] | Toxicity (WI38 cells; Table II) [µg/mL] | Toxicity (WI38 cells; Table III) [µg/mL] | IC50 (Coxsacki-B1) [µg/mL] | EC50 (Rhinovirus 88) [µg/mL] | IC50 (Coxsacki-A21) [µg/mL] | EC50 (Rhinovirus 86) [µg/mL] | also measured
Cc1cnsc1CCCCCCOc1ccc2oc3ccccc3c2c1 [Compound 19] | 0.5 (≈ 1.37 µM) | 10 (≈ 27.4 µM) | 5 (≈ 13.7 µM) | 10 (≈ 27.4 µM) | 14 | > 25 | 10 (≈ 27.4 µM) | 10 (≈ 27.4 µM) | 4 | > 25 | > 25 | 10 (≈ 27.4 µM) | > 25 | 50 | 50 | 50 | 5 (≈ 13.7 µM) | 1 (≈ 2.74 µM) | 10 (≈ 27.4 µM) | 10 (≈ 27.4 µM) | inhibitory activity against the members of the Entero virus family (Enterovirus serotypes): remarkable inhibitory activity; EC50 (Rhinovirus 1A; [3]): 10 µg/mL (≈ 27.4 µM); EC50 (Rhinovirus 36): > 25 µg/mL; IC50 (Echo-11): > 25 µg/mL; IC50 (Rhinovirus 29): 10 µg/mL (≈ 27.4 µM); IC50 (Coxsacki-B4): > 25 µg/mL; EC50 (Rhinovirus 32): > 25 µg/mL; EC50 (Rhinovirus 44): < 0.5 µg/mL; IC50 (Echo-7): 25 µg/mL (≈ 68.4 µM); EC50 (Rhinovirus 39): 5 µg/mL (≈ 13.7 µM); EC50 (Rhinovirus 53): 10 µg/mL (≈ 27.4 µM); inhibitory activity against HRV-1A and HRV-39 in vitro (HRV-1A and HRV-39): remarkably inhibitory activity; EC50 (Coxsacki-A9): 10 µg/mL (≈ 27.4 µM); IC50 (Rhinovirus 17): > 25 µg/mL
Cc1cc(CCCCCCCOc2ccc(C3=NCCO3)cc2)on1 [Disoxaril, reference compound] | 0.5 (≈ 1.46 µM) | 10 (≈ 29.2 µM) | 25 (≈ 73 µM) | 5 (≈ 14.6 µM) | 17 | 25 (≈ 73 µM) | > 25 | 25 (≈ 73 µM) | 7 | 0.5 (≈ 1.46 µM) | > 25 | 25 (≈ 73 µM) | 5 (≈ 14.6 µM) | 50 | 50 | 50 | 10 (≈ 29.2 µM) | < 0.5 | 5 (≈ 14.6 µM) | 0.5 (≈ 1.46 µM) | EC50 (Rhinovirus 1A; [3]): 10 µg/mL (≈ 29.2 µM); EC50 (Rhinovirus 1A; Table II, one of seven commonest serotypes, read-out: MIC 50 Rhinovirus Type 1A): 25 µg/mL (≈ 73 µM); EC50 (Rhinovirus 36): > 25 µg/mL; IC50 (Echo-11): 5 µg/mL (≈ 14.6 µM); IC50 (Rhinovirus 29): 10 µg/mL (≈ 29.2 µM); IC50 (Coxsacki-B4): 10 µg/mL (≈ 29.2 µM); EC50 (Rhinovirus 32): 10 µg/mL (≈ 29.2 µM); EC50 (Rhinovirus 44): < 0.5 µg/mL; IC50 (Echo-7): 5 µg/mL (≈ 14.6 µM); EC50 (Rhinovirus 39): 5 µg/mL (≈ 14.6 µM); EC50 (Rhinovirus 53): 25 µg/mL (≈ 73 µM); EC50 (Coxsacki-A9): 5 µg/mL (≈ 14.6 µM); IC50 (Rhinovirus 17): < 0.5 µg/mL
